Values quoted from earlier work as cited in patent publication US7208580B2, “Atomic structure of the hemalbumin complex and its use in designing therapeutic compounds” (New Century Pharmaceuticals, Inc., priority 2002, dated 2007).

Target: human albumin (Homo sapiens, UniProt P02768)
Sequence (P02768 25-609): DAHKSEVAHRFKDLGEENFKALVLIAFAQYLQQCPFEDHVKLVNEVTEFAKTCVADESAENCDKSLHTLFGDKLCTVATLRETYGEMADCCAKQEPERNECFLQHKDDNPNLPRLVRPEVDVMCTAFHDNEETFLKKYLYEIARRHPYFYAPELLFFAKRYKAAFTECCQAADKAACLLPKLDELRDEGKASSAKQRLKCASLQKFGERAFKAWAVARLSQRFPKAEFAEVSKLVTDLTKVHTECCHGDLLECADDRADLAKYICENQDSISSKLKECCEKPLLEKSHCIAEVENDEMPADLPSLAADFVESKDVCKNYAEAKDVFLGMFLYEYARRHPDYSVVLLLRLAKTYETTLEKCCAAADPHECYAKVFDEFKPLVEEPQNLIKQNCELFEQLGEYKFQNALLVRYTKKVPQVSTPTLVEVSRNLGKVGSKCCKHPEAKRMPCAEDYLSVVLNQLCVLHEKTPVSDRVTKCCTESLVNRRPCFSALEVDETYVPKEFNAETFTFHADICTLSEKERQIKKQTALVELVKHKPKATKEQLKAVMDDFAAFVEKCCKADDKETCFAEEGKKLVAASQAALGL

Row | KA, single high affinity site (hemin binding to human albumin, association constant from reference (9)) | Molecule | binding constants for protoporphyrin at the specialized high affinity site (albumins from primates, printed as '1×10^8 Ka')
1 | 1.1e+08 M⁻¹ | Fe^III Protoporphyrin-IX (Cl) [Hemin] | –
2 | – | C=CC1=C(C)c2cc3[nH]c(cc4nc(cc5[nH]c(cc1n2)c(C)c5CCC(=O)O)C(CCC(=O)O)=C4C)c(C)c3C=C [protoporphyrin, Fe^III-Protoporphyrin-IX] | ~1×10^8
